Experimental data as given in patent US11135236B2, “Retinoic acid receptor gamma agonists to attenuate anthracycline-induced cardiotoxicity” (Northwestern University, priority 2018, dated 2021).

Key:
[1] = test system: RARG-KO hiPSC-CMs; assay: caspase 3 and 7 activity after 24 h doxorubicin (Caspase 3/7-Glo); assay type: cell-based, human
[2] = test system: hiPSC-CMs; assay: DNA damage by γH2AX staining; assay type: cell-based, human; details: patient hiPSC-CMs, 24 h doxorubicin
Method: Immunofluorescent staining. hiPSCs were dissociated with 0.5 mM EDTA and plated onto Matrigel-coated Nunc Lab-Tek II 8-chamber slides in E8 medium for three days (E8Y for the first 24 h). Cells were fixed, permeabilized, and stained for POU5F1, SSEA4, SOX2, TRA-1-60 with the PSC 4-Marker Immunocytochemistry Kit (Invitrogen) according to manufacturer's instructions. Cardiomyocytes were dissociated with Liberase TH (as above) and plated onto Matrigel-coated No 1.5 coverslips as previously described and allowed to adhere and spread for 4 days. Cells were fixed with 4% paraformaldehyde (Electron Microscopy Services) in DPBS for 15 min at RT, permeabilized with 1% saponin (MilliporeSigma) in DPBS for 15 min at RT, blocked with 3% bovine serum albumin (BSA, MilliporeSigma) in DPBS for 30 min at RT, and stained overnight in 3% BSA/DPBS at 4° C. with 1:200 polyclonal rabbit IgG anti-TNNT2 (Abcam, ab45932), 1:500 monoclonal mouse IgG1 anti-ACTN2 (Sigma, A7811), 1:200 monoclonal rabbit IgG RARG (Abcam, ab187159), or 1:200 monoclonal mouse IgG1 γH2AX (MilliporeSigma, 05-636). […]
Flow cytometry-based DNA damage assay. […] Cells were analyzed using a CytoFLEX (Beckman Coulter) with CytExpert 2.0 software and Prism 7.0 software (GraphPad).

COc1cccc2c1C(=O)c1c(O)c3c(c(O)c1C2=O)C[C@@](O)(C(=O)CO)C[C@@H]3O[C@H]1C[C@H](N)[C@H](O)[C@H](C)O1 [doxorubicin]
LD50, caspase 3 and 7 activity [1]: 0.314 µM
DNA damage (γH2AX) [2]: concentration-dependent increase in DNA damage
